Measurements as given in PubChem BioAssay AID1963430 (Molecular Pharmacology Branch, DTP, NCI, 2024).
pIC50: −log10 of the molar value.

System: 521955-158-R2-J5-PDC complex spheroid growth, % test/control
Assay: Anticancer human tumor 521955-158-R2-J5-PDC patient-derived pancreatic carcinoma cell line growth inhibition [Asc]
Details: for pIC50: curve of first compound; for viability, T/C: stronger effect = lower value
Summary of the method: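 Concentration series start at each agent's clinical Cmax, or at 10 microM when none is established, and drop in half-log steps; agents are applied alone or together to complex spheroids built with HUVEC and hMSC.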

[1] = second compound 0.03 µM, first compound 0.0316 µM
[2] = second compound 0.03 µM, first compound 0.1 µM
[3] = second compound 0.03 µM, first compound 0.316 µM
[4] = second compound 0.03 µM, first compound 1 µM
[5] = second compound 0.03 µM, first compound 3.16 µM
[6] = second compound 0.03 µM, first compound 10 µM
[7] = second compound 0.0949 µM, first compound 0.0316 µM
[8] = second compound 0.0949 µM, first compound 0.1 µM
[9] = second compound 0.0949 µM, first compound 0.316 µM
[10] = second compound 0.0949 µM, first compound 1 µM
[11] = second compound 0.0949 µM, first compound 3.16 µM
[12] = second compound 0.0949 µM, first compound 10 µM
[13] = second compound 0.3 µM, first compound 0.0316 µM
[14] = second compound 0.3 µM, first compound 0.1 µM
[15] = second compound 0.3 µM, first compound 0.316 µM
[16] = second compound 0.3 µM, first compound 1 µM
[17] = second compound 0.3 µM, first compound 3.16 µM
[18] = second compound 0.3 µM, first compound 10 µM
[19] = second compound 0.949 µM, first compound 0.0316 µM
[20] = second compound 0.949 µM, first compound 0.1 µM
[21] = second compound 0.949 µM, first compound 0.316 µM
[22] = second compound 0.949 µM, first compound 1 µM
[23] = second compound 0.949 µM, first compound 3.16 µM
[24] = second compound 0.949 µM, first compound 10 µM
[25] = second compound 3 µM, first compound 0.0316 µM
[26] = second compound 3 µM, first compound 0.1 µM
[27] = second compound 3 µM, first compound 0.316 µM
[28] = second compound 3 µM, first compound 1 µM
[29] = second compound 3 µM, first compound 3.16 µM
[30] = second compound 3 µM, first compound 10 µM
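Note: spheroids exposed to agents for 7 days before readout.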
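Throughout, for viability, T/C: 100% = DMSO vehicle control viability.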

Molecule C#Cc1c(F)ccc2cc(O)cc(-c3ncc4c(N5CC6CCC(C5)N6)nc(OCC56CCCN5CC(F)C6)nc4c3F)c12 (stereo not given) + CCN1C(C(=O)NC23CCC(C(=O)O)(CC2)CC3)C(c2cccc(Cl)c2F)C2(C(=O)Nc3cc(Cl)ccc32)C12CCCCC2 has a pIC50 (second compound 0.03 µM) greater than 7.50, a pIC50 (second compound 0.0949 µM) greater than 7.50 and a pIC50 (second compound 0.3 µM) greater than 7.50. It also gave a pIC50 (second compound 0.949 µM) greater than 7.50, a pIC50 (second compound 3 µM) of 5.30 and a viability, T/C [1] of 53%. The viability, T/C [2] was 41.6%, the viability, T/C [3] was 33.2% and the viability, T/C [4] was 35.1%. It also gave a viability, T/C [5] of 35.5%, a viability, T/C [6] of 32% and a viability, T/C [7] of 48.1%. The viability, T/C [8] was 39.8%, the viability, T/C [9] was 44.4% and the viability, T/C [10] was 38%. The viability, T/C [11] was 41.7%, the viability, T/C [12] was 43.9% and the viability, T/C [13] was 45.9%. For the same molecule, the viability, T/C [14] was 44%, the viability, T/C [15] was 39.9% and the viability, T/C [16] was 40.4%. The viability, T/C [17] was 42.9%, the viability, T/C [18] was 39.2% and the viability, T/C [19] was 42.7%. For the same molecule, the viability, T/C [20] was 50.6%, the viability, T/C [21] was 56.3% and the viability, T/C [22] was 41.1%. The viability, T/C [23] was 54.8%, the viability, T/C [24] was 42.4% and the viability, T/C [25] was 70.1%. It also gave a viability, T/C [26] of 68.9%, a viability, T/C [27] of 66% and a viability, T/C [28] of 59.1%. For the same molecule, the viability, T/C [29] was 55.1% and the viability, T/C [30] was 43.8%.

For C=C(F)C(=O)N1CCN(c2nc(OCC3CCCN3C)nc3c2CCN(c2cccc4cccc(Cl)c24)C3)CC1CC#N (stereo not given) + CCN1C(C(=O)NC23CCC(C(=O)O)(CC2)CC3)C(c2cccc(Cl)c2F)C2(C(=O)Nc3cc(Cl)ccc32)C12CCCCC2, the pIC50 (second compound 0.03 µM) was 5.27, the pIC50 (second compound 0.0949 µM) was 5.25 and the pIC50 (second compound 0.3 µM) was 5.22. It also gave a pIC50 (second compound 0.949 µM) of 5.17, a pIC50 (second compound 3 µM) of 5.17 and a viability, T/C [1] of 95.2%. For the same molecule, the viability, T/C [2] was 95.1%, the viability, T/C [3] was 77.5% and the viability, T/C [4] was 85.2%. It also gave a viability, T/C [5] of 110%, a viability, T/C [6] of 0.26% and a viability, T/C [7] of 98%. The viability, T/C [8] was 103%, the viability, T/C [9] was 71.4% and the viability, T/C [10] was 91.5%. For the same molecule, the viability, T/C [11] was 128%, the viability, T/C [12] was 0.27% and the viability, T/C [13] was 110%. For the same molecule, the viability, T/C [14] was 98.2%, the viability, T/C [15] was 108% and the viability, T/C [16] was 113%. It also gave a viability, T/C [17] of 141%, a viability, T/C [18] of 0.27% and a viability, T/C [19] of 130%. The viability, T/C [20] was 95.8%, the viability, T/C [21] was 109% and the viability, T/C [22] was 112%. It also gave a viability, T/C [23] of 152%, a viability, T/C [24] of 12.7% and a viability, T/C [25] of 120%. The viability, T/C [26] was 154%, the viability, T/C [27] was 146% and the viability, T/C [28] was 137%. For the same molecule, the viability, T/C [29] was 188% and the viability, T/C [30] was 0.35%.

C=CC(=O)N1CCN(c2nc(=O)n(-c3c(C)ccnc3C(C)C)c3nc(-c4c(O)cccc4F)c(F)cc23)C(C)C1 (stereo not given) + CCN1C(C(=O)NC23CCC(C(=O)O)(CC2)CC3)C(c2cccc(Cl)c2F)C2(C(=O)Nc3cc(Cl)ccc32)C12CCCCC2 gave a pIC50 (second compound 0.03 µM) of less than 5.00, a pIC50 (second compound 0.0949 µM) of less than 5.00 and a pIC50 (second compound 0.3 µM) of less than 5.00. The pIC50 (second compound 0.949 µM) was less than 5.00, the pIC50 (second compound 3 µM) was less than 5.00 and the viability, T/C [1] was 75.2%. The viability, T/C [2] was 67.4%, the viability, T/C [3] was 92.5% and the viability, T/C [4] was 113%. For the same molecule, the viability, T/C [5] was 127%, the viability, T/C [6] was 98.3% and the viability, T/C [7] was 112%. The viability, T/C [8] was 107%, the viability, T/C [9] was 113% and the viability, T/C [10] was 116%. The viability, T/C [11] was 114%, the viability, T/C [12] was 105% and the viability, T/C [13] was 76.2%. The viability, T/C [14] was 110%, the viability, T/C [15] was 111% and the viability, T/C [16] was 122%. It also gave a viability, T/C [17] of 130%, a viability, T/C [18] of 91.2% and a viability, T/C [19] of 107%. For the same molecule, the viability, T/C [20] was 110%, the viability, T/C [21] was 140% and the viability, T/C [22] was 130%. The viability, T/C [23] was 130%, the viability, T/C [24] was 90.2% and the viability, T/C [25] was 128%. It also gave a viability, T/C [26] of 135%, a viability, T/C [27] of 123% and a viability, T/C [28] of 141%. The viability, T/C [29] was 120% and the viability, T/C [30] was 112%.

CNC(C)C(=O)NC1CN(S(=O)(=O)c2cccc(S(=O)(=O)N3CCC4CCC(C(=O)NC(c5ccccc5)c5ccccc5)N4C(=O)C(NC(=O)C(C)NC)C3)c2)CCC2CCC(C(=O)NC(c3ccccc3)c3ccccc3)N2C1=O (stereo not given) + CCN1C(C(=O)NC23CCC(C(=O)O)(CC2)CC3)C(c2cccc(Cl)c2F)C2(C(=O)Nc3cc(Cl)ccc32)C12CCCCC2 showed a pIC50 (second compound 0.03 µM) of less than 6.00, a pIC50 (second compound 0.0949 µM) of less than 6.00 and a pIC50 (second compound 0.3 µM) of less than 6.00. It also gave a pIC50 (second compound 0.949 µM) of less than 6.00, a pIC50 (second compound 3 µM) of less than 6.00 and a viability, T/C (second compound 0.03 µM, first compound 0.00316 µM) of 141%. It also gave a viability, T/C (second compound 0.03 µM, first compound 0.01 µM) of 76.6%, a viability, T/C [1] of 86.4% and a viability, T/C [2] of 65.2%. It also gave a viability, T/C [3] of 66%, a viability, T/C [4] of 76% and a viability, T/C (second compound 0.0949 µM, first compound 0.00316 µM) of 111%. It also gave a viability, T/C (second compound 0.0949 µM, first compound 0.01 µM) of 95.8%, a viability, T/C [7] of 90.7% and a viability, T/C [8] of 101%. It also gave a viability, T/C [9] of 105%, a viability, T/C [10] of 115% and a viability, T/C (second compound 0.3 µM, first compound 0.00316 µM) of 120%. For the same molecule, the viability, T/C (second compound 0.3 µM, first compound 0.01 µM) was 133%, the viability, T/C [13] was 84.3% and the viability, T/C [14] was 97.6%. The viability, T/C [15] was 94%, the viability, T/C [16] was 102% and the viability, T/C (second compound 0.949 µM, first compound 0.00316 µM) was 87.8%. The viability, T/C (second compound 0.949 µM, first compound 0.01 µM) was 102%, the viability, T/C [19] was 158% and the viability, T/C [20] was 116%. The viability, T/C [21] was 84.2%, the viability, T/C [22] was 106% and the viability, T/C (second compound 3 µM, first compound 0.00316 µM) was 166%. The viability, T/C (second compound 3 µM, first compound 0.01 µM) was 102%, the viability, T/C [25] was 141% and the viability, T/C [26] was 120%. For the same molecule, the viability, T/C [27] was 151% and the viability, T/C [28] was 123%.
